Measured values published in patent US20260256753A1, “USE OF AN OREXIN 2 RECEPTOR AGONIST FOR IMPROVING RESPIRATORY FUNCTION DURING SLEEP” (TAKEDA PHARMACEUTICAL COMPANY LIMITED, priority 2023, published 2026).

Legend:
rats = assay: Arousal effects after oral administration in rats; format: in vivo, rat; details: oral administration at 10 mg/kg or more
OX2R = molecular target: T1, OX2R (Homo sapiens, UniProt O43614); details: OX2R-expressed recombinant cells; cited from earlier work
T1 sequence (O43614 1-444): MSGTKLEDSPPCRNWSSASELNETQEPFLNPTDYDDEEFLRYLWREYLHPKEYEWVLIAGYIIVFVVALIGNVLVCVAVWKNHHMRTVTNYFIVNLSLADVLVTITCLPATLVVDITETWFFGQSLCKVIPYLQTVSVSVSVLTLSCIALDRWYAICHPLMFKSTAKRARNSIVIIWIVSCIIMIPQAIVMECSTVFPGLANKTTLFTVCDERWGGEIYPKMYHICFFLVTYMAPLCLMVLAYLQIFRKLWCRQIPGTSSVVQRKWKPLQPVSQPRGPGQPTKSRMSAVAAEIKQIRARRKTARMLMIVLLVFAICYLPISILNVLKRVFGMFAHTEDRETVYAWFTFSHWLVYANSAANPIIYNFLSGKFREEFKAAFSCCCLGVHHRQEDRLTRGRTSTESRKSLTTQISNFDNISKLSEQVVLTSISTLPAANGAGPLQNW

[1] = test system: patients with obstructive sleep apnea; assay: Phase 1b crossover study of overnight intravenous infusion in obstructive sleep apnea: safety and tolerability; format: in vivo, human; details: for placebo adjusted LS mean change in DBP / placebo adjusted LS mean change in SBP: at predose
Method: (§1) A phase 1b, randomized, double-blind, placebo-controlled, 3-period crossover study was conducted to evaluate the safety, tolerability, pharmacodynamic, and pharmacokinetic effects of overnight intravenous COMPOUND A in patients with obstructive sleep apnea (OSA). This study was planned to further evaluate COMPOUND A intravenous administration (IV) in adults with OSA, hypothesizing that nonwake-promoting exposures of COMPOUND A would increase genioglossal muscle tone and increase airway patency via the increasing activity of hypoglossal motoneurons. The main goal of this study was to evaluate the mechanistic potential of OX2R agonism for treatment of OSA using COMPOUND A IV infusion to determine appropriate use in future trials with an oral OX2R agonist.
(§2) Participants were male or female, aged 18 to 75 years inclusive, with OSA diagnosed according to the International Classification of Sleep Disorders-3 (ICSD-3) criteria and an apnea hypopnea index (AHI) of 12 to 50 events/hour of sleep. The study consisted of a screening period, 3 treatment periods separated by 2 washout periods, and a follow-up period. A total of 13 participants were enrolled and randomized, of which 12 (92.3%) participants completed all planned doses of study drug and the study.
(§3) Eligible participants were randomly assigned (in a double-blinded manner) to 1 of 6 treatment sequences. In each treatment period, participants underwent 3 UACI assessments, a 10-minute evaluation that tested the key biological mechanism that causes OSA (as described by Osman, A. M., et al., 2019, Sleep, 42 (7), 1-10), followed by an overnight polysomnography (PSG). After the first baseline UACI assessment (U1), an IV infusion regimen of COMPOUND A or placebo was administered over approximately 10 hours to achieve specific plasma concentrations to evaluate the effect of COMPOUND A on the UACI and PSG metrics. Target plasma concentrations for the low-dose COMPOUND A IV regimen were 10 ng/mL for the second UACI (U2), 30 ng/ml for the third UACI (U3), and 10 ng/ml for the overnight PSG. Target plasma concentrations for the high-dose COMPOUND A IV regimen were 30 ng/mL for the U2, 90 ng/mL for the U3, and 30 ng/ml for the overnight PSG.
(§4) To achieve the target exposures for the UACI assessments (U2 and U3), there was a 20-minute loading period, followed by a 15-minute maintenance period for each. The overnight maintenance dose (approximately 490 minutes) covered the duration of a standard overnight PSG (approximately 8 hours). Doses were selected to cover the potential pharmacologically active concentration range for upper airway collapsibility. The concentration of COMPOUND A in solution was such that participants received the same volume of fluid in the low-dose COMPOUND A regimen, the high-dose COMPOUND A regimen, and placebo, allowing the study to be double-blinded and ensuring all participants were infused with the same volume of fluid.
On Day 1 of each treatment period, participants checked in approximately 3 hours prior to the scheduled dosing time. The procedure started in the evening to reduce the confounding factors of endogenous OX levels on assessments. Start time was adjusted based on the patient's usual bedtime. Following a physical examination, urine drug screen, and alcohol breathalyzer test, participants were fitted with an IV catheter for placebo/COMPOUND A infusion, electroencephalogram (EEG) electrodes to monitor wakefulness, choanal and epiglottic pressure sensors, and a nasal mask and pneumotachograph to measure airflow (Osman, et al. 2019).
Following the baseline UACI measurements, IV infusion of placebo or COMPOUND A began. COMPOUND A was tested at 2 concentrations in a stepwise manner, consisting of a 20 minute loading period followed by a 15 minute maintenance period per step. The UACI was tested at each concentration during the maintenance period. […]

[2] = test system: patients with obstructive sleep apnea; assay: Phase 1b crossover study in obstructive sleep apnea: overnight polysomnography (PSG); format: in vivo, human
Method: as §1, §2, §3, §4
Following the baseline UACI measurements, IV infusion of placebo or COMPOUND A began. COMPOUND A was tested at 2 concentrations in a stepwise manner, consisting of a 20 minute loading period followed by a 15 minute maintenance period per step. The UACI was tested at each concentration during the maintenance period. A Karolinska Sleepiness Scale (KSS) was administered immediately prior to each UACI testing period to gauge subjective sleepiness. After the U3 test, a KSS was administered, after which the UACI testing equipment (pressure sensors, genioglossus EMG electrodes) was removed with the exception of EEG electrodes that remained in place to record PSG throughout the evening. Prior to lights off, a final KSS was administered. Lights-off occurred, and participants were then allowed to sleep until the following morning (Day 2). Infusion of COMPOUND A/placebo was maintained throughout the night during the nocturnal PSG (nPSG) and ended approximately 8 hours after lights off. Participants were then discharged on Day 2. […]

[3] = 30 ng/ml continuously throughout the sleep period

CC(C)(O)C(=O)N1CC(F)(F)[C@H](NS(C)(=O)=O)[C@@H]1Cc1cccc(-c2cc(F)cc(F)c2)c1F [Compound C, N-{(2S,3R)-4,4-difluoro-1-(2-hydroxy-2-methylpropanoyl)-2-[(2,3′,5′-trifluoro[1,1′-biphenyl]-3-yl)methyl]pyrrolidin-3-yl}methanesulfonamide]
arousal effects (rats): potent arousal effects

COC(=O)N1CCC[C@H](NS(C)(=O)=O)[C@@H]1CO[C@H]1CC[C@@H](c2ccccc2)CC1 (relative stereo) [Compound A, methyl(2R,3S)-3-((methylsulfonyl)amino)-2-(((cis-4-phenylcyclohexyl)oxy)methyl) piperidine-1-carboxylate]
recruitment of β-arrestins (OX2R): promote recruitment of β-arrestins | participants who experienced drug-related TEAEs ([1]; all treatment periods (low-dose, high-dose, placebo), 13 participants): 23.1% | number of drug-related TEAEs ([1]; all treatment periods (low-dose, high-dose, placebo), all mild): 4 | deaths or serious TEAEs ([1]; during the study): No deaths or serious TEAEs | drug related TEAEs ([1]; high dose regimen): no drug related TEAEs | placebo adjusted LS mean change in DBP ([1]; high dose regimen): 1.84 mmHg | placebo adjusted LS mean change in SBP ([1]; high dose regimen): 9.01 mmHg | consequence of TEAE of blood pressure increased ([1]; low dose regimen): led to study drug discontinuation | placebo adjusted LS mean change in DBP ([1]; low dose regimen): 0.29 mmHg | placebo adjusted LS mean change in SBP ([1]; low dose regimen): 2.44 mmHg | dose related trend of most frequent TEAE (headache) ([1]; low versus high dose regimen): no dose related trend was observed | tolerability ([1]; low-dose and high-dose IV regimens, adult participants with OSA): generally well tolerated with no safety concerns | drug-related TEAE of blood pressure increased (number) ([1]; low-dose regimen): 1 | drug-related TEAE of myalgia (number) ([1]; low-dose regimen): 1 | drug-related TEAEs of headache (number) ([1]; low-dose regimen and placebo together): 2 | intensity of TEAEs ([1]; whole study, moderate headache on low dose regimen, not related to study drug): mild in intensity except for 1 moderate TEAE of headache | REM [2, 3]: significantly decreased | ability to fall asleep [2, 3]: did not cause an inability to fall asleep | sleep efficiency [2, 3]: reducing | wake after sleep onset [2, 3]: increasing | arousal threshold in response to ventilatory disturbance ([2]; high-dose regimen): decreased | hypoxic burden estimate ([2]; high-dose regimen): ≤ 53 %*minutes/hour | loop gain ([2]; high-dose regimen): decreased | AHI LS mean ([2]; high-dose regimen of 30 ng/ml overnight): less than 30 events/hour | decrease in AHI ([2]; high-dose regimen of 30 ng/ml overnight, statistically and clinically significant): approximately 9 events/hour | pharyngeal collapsibility during sleep (Vpassive and Vactive) ([2]; high-dose regimen, OSA endotypes): appeared to decrease | hypoxic burden ([2]; high-dose regimen, placebo-adjusted difference statistically significant): beneficial reduction in hypoxic burden | hypoxic burden estimate ([2]; low-dose regimen): ≤ 53 %*minutes/hour
